Source: publication PMC8956739, “A synthetic lipopeptide targeting top-priority multidrug-resistant Gram-negative pathogens” (Nature Communications, 2022)
Values after ≈ are worked out from the molar mass of the structure shown. Values joined by “and” are separate entries in the source; they are usually repeats but may differ in a detail not shown here. Identical values can stand only once. Residues, ends and D or L forms follow the SMILES beside them.

How the values were obtained:
[1] = system: K. pneumoniae FADDI-KP065; type: cell-based, Klebsiella pneumoniae; conditions: FADDI-KP065
Protocol: (§1) MICs were determined in cation-adjusted Mueller–Hinton broth (CaMHB) by the broth micro-dilution method against ATCC strains and clinical isolates. MICs in the presence of Survanta® were determined as described above against P. aeruginosa ATCC 27853. In the 100 μL of fresh CaMHB containing polymyxins, 10% Survanta® (v/v, 2.5 mg/mL phospholipids) was added. MICs in the presence and absence of Survanta® were compared to determine the effect of binding to lung surfactant on the antibacterial activity of polymyxins.

[2] = system: K. pneumoniae FADDI-KP032; type: cell-based, Klebsiella pneumoniae; conditions: FADDI-KP032
Protocol: as §1

P. aeruginosa ATCC 27853 [3] = experiment: Neutropenic mouse bloodstream infection model; type: in vivo; conditions: single IV dose 4 mg/kg; for Log10 CFU/mL blood at 4 h, Mean / Δlog10 CFU/mL blood (mean) / Log10 CFU/mL blood at 4 h, single mouse: 4 h; for Δlog10 CFU/mL blood (mean): treated minus control, mean of replicates; for Δlog10 CFU/mL blood (mean) / Log10 CFU/mL blood at 4 h, single mouse / Delta Log10 CFU/mL blood at 4 h, single mouse: 4 mg/kg; for Delta Log10 CFU/mL blood at 4 h, single mouse: treated mouse minus mean of vehicle mice
Protocol: The experimental methodology for the neutropenic mouse bloodstream infection model was described previously. Briefly, 7-week-old female Swiss mice (22–28 g) were rendered neutropenic by intraperitoneal administration of cyclophosphamide, 4 days (150 mg/kg) and 1 day (100 mg/kg) prior to inoculation. Bloodstream infection was established by intravenous administration of a 50 µL bolus of early log-phase bacterial suspension (4 × 10^8 CFU/mL). Lipopeptide solutions were prepared at 1 mg/mL (free base) in sterile saline. At 2 h after inoculation, mice (n = 3) were injected intravenously with lipopeptide solution at 4 mg/kg (free base) or saline control. At 0 and 4 h after administration, blood was collected, diluted serially in sterile saline, and plated on nutrient agar plates. Agar plates were incubated at 37 °C overnight for bacterial colony counting and the bacterial load in the blood (log10 CFU/mL) in each mouse was calculated. In vivo efficacy was calculated as the difference of the log10 CFU/mL blood values between the treated mice and the saline-treated mice at 4 h post dosing (Δlog10 CFU/mL blood = log10 [treated] CFU/mL blood − log10[control] CFU/mL blood).

P. aeruginosa ATCC 27853 [4] = type: cell-based, Pseudomonas aeruginosa; conditions: ATCC 27853
Protocol: as §1

[5] = system: P. aeruginosa FADDI-PA038; type: cell-based, Pseudomonas aeruginosa; conditions: FADDI-PA038
Protocol: as §1

[6] = system: P. aeruginosa FADDI-PA025; type: cell-based, Pseudomonas aeruginosa; conditions: FADDI-PA025
Protocol: as §1

A. baumannii FADDI-AB030 = type: cell-based, Acinetobacter baumannii; conditions: FADDI-AB030
Protocol: as §1

A. baumannii ATCC 19606 = type: cell-based, Acinetobacter baumannii; conditions: ATCC 19606
Protocol: as §1

A. baumannii FADDI-AB034 = type: cell-based, Acinetobacter baumannii; conditions: FADDI-AB034
Protocol: as §1

Swiss mice, kidney = experiment: Nephrotoxicity in mice (kidney histopathology); type: in vivo, mouse; conditions: for Kidney histopathology (SQS Score): 72 mg/kg/d subcutaneously in six divided doses every 2 h, n = 3; for Kidney histopathology, mice with the SQS score: mouse, in vivo
Protocol: The experimental methodology has been previously reported by our group. Briefly, individual lipopeptide solutions were prepared in sterile saline (6 mg/mL). Swiss mice (female, 7-week-old, 22–28 g) were subcutaneously administered at 12 mg/kg in, 6 doses every 2 h to reach a total dose of 72 mg/kg (n = 3). For high-dose nephrotoxicity experiments, mice were intraperitoneally administered at 20 or 25 mg/kg, in 6 doses every 2 h to reach a total dose of 120 mg/kg (n = 6) or 150 mg/kg (n = 3). At 20 h after the last dose, the right kidney from each mouse was collected and placed in 10% buffered (pH 7.4) formalin (Sigma-Aldrich, Castle Hill, NSW, Australia). The kidneys were subjected to histological examination at the Australian Phenomics Network-Histopathology and Organ Pathology (University of Melbourne, Parkville, VIC, Australia), who was blind to the treatment groups.

In the case of `CCCCCCCC(=O)N[C@@H](CCN)C(=O)N[C@H](C(=O)N[C@@H](CCN)C(=O)N[C@H]1CCNC(=O)[C@H]([C@@H](C)O)NC(=O)[C@H](CCN)NC(=O)[C@H](CCN)NC(=O)[C@H](C)NC(=O)[C@@H](CC(C)C)NC(=O)[C@H](CCN)NC1=O)[C@@H](C)O` [Lipopeptide F124] (HELM PEPTIDE1{[CCCCCCCC(=O)[*:2]].[Dab].T.[Dab].[Dab].[Dab].[dL].A.[Dab].[Dab].T}$PEPTIDE1,PEPTIDE1,5:R3-11:R2$$$V2.0), the “MIC K. pneumoniae FADDI-KP065” value [1] is reported as <0.125 µg/mL, the “MIC K. pneumoniae FADDI-KP032” value [2] is reported as 0.25 µg/mL (≈ 0.225 µM) and the “Log10 CFU/mL blood at 4 h, Mean” value (P. aeruginosa ATCC 27853 [3]) is reported as 4.53 Log10 CFU/mL blood. The “Δlog10 CFU/mL blood (mean)” value (P. aeruginosa ATCC 27853 [3]) was −2.92 log10 CFU/mL blood, the “Log10 CFU/mL blood at 4 h, single mouse” value (P. aeruginosa ATCC 27853 [3]) was 4.71 Log10 CFU/mL blood and 4.61 Log10 CFU/mL blood and 4.26 Log10 CFU/mL blood and the “Delta Log10 CFU/mL blood at 4 h, single mouse” value (“Delta Log10 CFU/mL blood at 4 h” for short) (P. aeruginosa ATCC 27853 [3]) was -2.74 Log10 CFU/mL blood and -2.83 Log10 CFU/mL blood and -3.19 Log10 CFU/mL blood. The “MIC P. aeruginosa ATCC 27853” value (P. aeruginosa ATCC 27853 [4]) was 0.5 µg/mL (≈ 0.449 µM), the “MIC P. aeruginosa FADDI-PA038” value [5] was 0.5 µg/mL (≈ 0.449 µM) and the “MIC P. aeruginosa FADDI-PA025” value [6] was >32 µg/mL. For the same compound, the “MIC A. baumannii FADDI-AB030” value (A. baumannii FADDI-AB030) was 1 µg/mL (≈ 0.898 µM), the “MIC A. baumannii ATCC 19606” value (A. baumannii ATCC 19606) was 1 µg/mL (≈ 0.898 µM) and the “MIC A. baumannii FADDI-AB034” value (A. baumannii FADDI-AB034) was 0.5 µg/mL (≈ 0.449 µM). For the same compound, the “Kidney histopathology (SQS Score)” value (Swiss mice, kidney) was 0 (SQS 0 = no significant change (overall score, <1)) and the “Kidney histopathology, mice with the SQS score” value (“Kidney histopathology, mice” below) (Swiss mice, kidney) was 3/3.

For `CCCCCCCC(=O)N[C@@H](CCN)C(=O)N[C@H](C(=O)N[C@@H](CCN)C(=O)N[C@H]1CCNC(=O)[C@H]([C@@H](C)O)NC(=O)[C@H](CCN)NC(=O)[C@H](CCN)NC(=O)[C@H]([C@@H](C)O)NC(=O)[C@@H](Cc2ccccc2)NC(=O)[C@H](CCN)NC1=O)[C@@H](C)O` [Lipopeptide F224] (HELM PEPTIDE1{[CCCCCCCC(=O)[*:2]].[Dab].T.[Dab].[Dab].[Dab].[dF].T.[Dab].[Dab].T}$PEPTIDE1,PEPTIDE1,5:R3-11:R2$$$V2.0), the “MIC K. pneumoniae FADDI-KP065” value [1] was <0.125 µg/mL, the “MIC K. pneumoniae FADDI-KP032” value [2] was 0.5 µg/mL (≈ 0.425 µM) and the “Log10 CFU/mL blood at 4 h, Mean” value (P. aeruginosa ATCC 27853 [3]) was 4.07 Log10 CFU/mL blood. The “Δlog10 CFU/mL blood (mean)” value (P. aeruginosa ATCC 27853 [3]) was −3.38 log10 CFU/mL blood, the “Log10 CFU/mL blood at 4 h, single mouse” value (P. aeruginosa ATCC 27853 [3]) was 4.08 Log10 CFU/mL blood and 4.03 Log10 CFU/mL blood and 4.10 Log10 CFU/mL blood and the “Delta Log10 CFU/mL blood at 4 h” value (P. aeruginosa ATCC 27853 [3]) was -3.37 Log10 CFU/mL blood and -3.42 Log10 CFU/mL blood and -3.35 Log10 CFU/mL blood. For the same compound, the “MIC P. aeruginosa ATCC 27853” value (P. aeruginosa ATCC 27853 [4]) was 1 µg/mL (≈ 0.849 µM), the “MIC P. aeruginosa FADDI-PA038” value [5] was 0.5 µg/mL (≈ 0.425 µM) and the “MIC P. aeruginosa FADDI-PA025” value [6] was 16 µg/mL (≈ 13.6 µM). The “MIC A. baumannii FADDI-AB030” value (A. baumannii FADDI-AB030) was 0.25 µg/mL (≈ 0.212 µM), the “MIC A. baumannii ATCC 19606” value (A. baumannii ATCC 19606) was 1 µg/mL (≈ 0.849 µM) and the “MIC A. baumannii FADDI-AB034” value (A. baumannii FADDI-AB034) was 0.5 µg/mL (≈ 0.425 µM). The “Kidney histopathology (SQS Score)” value (Swiss mice, kidney) was 0 (SQS 0 = no significant change (overall score, <1)) and the “Kidney histopathology, mice” value (Swiss mice, kidney) was 3/3.

For `CCCCCCCC(=O)N[C@@H](CCN)C(=O)N[C@H](C(=O)N[C@@H](CCN)C(=O)N[C@H]1CCNC(=O)[C@H]([C@@H](C)O)NC(=O)[C@H](CCN)NC(=O)[C@H](CCN)NC(=O)[C@H](C(C)C)NC(=O)[C@@H](CC(C)C)NC(=O)[C@H](CCN)NC1=O)[C@@H](C)O` [Lipopeptide F225] (HELM PEPTIDE1{[CCCCCCCC(=O)[*:2]].[Dab].T.[Dab].[Dab].[Dab].[dL].V.[Dab].[Dab].T}$PEPTIDE1,PEPTIDE1,5:R3-11:R2$$$V2.0), the “MIC K. pneumoniae FADDI-KP065” value [1] was <0.125 µg/mL, the “MIC K. pneumoniae FADDI-KP032” value [2] was <0.125 µg/mL and the “Log10 CFU/mL blood at 4 h, Mean” value (P. aeruginosa ATCC 27853 [3]) was 4.59 Log10 CFU/mL blood. The “Δlog10 CFU/mL blood (mean)” value (P. aeruginosa ATCC 27853 [3]) was −2.86 log10 CFU/mL blood, the “Log10 CFU/mL blood at 4 h, single mouse” value (P. aeruginosa ATCC 27853 [3]) was 4.22 Log10 CFU/mL blood and 4.78 Log10 CFU/mL blood (2×) and the “Delta Log10 CFU/mL blood at 4 h” value (P. aeruginosa ATCC 27853 [3]) was -3.23 Log10 CFU/mL blood and -2.67 Log10 CFU/mL blood (2×). For the same compound, the “MIC P. aeruginosa ATCC 27853” value (P. aeruginosa ATCC 27853 [4]) was 1 µg/mL (≈ 0.876 µM), the “MIC P. aeruginosa FADDI-PA038” value [5] was 1 µg/mL (≈ 0.876 µM) and the “MIC P. aeruginosa FADDI-PA025” value [6] was 4 µg/mL (≈ 3.5 µM). For the same compound, the “MIC A. baumannii FADDI-AB030” value (A. baumannii FADDI-AB030) was 0.25 µg/mL (≈ 0.219 µM), the “MIC A. baumannii ATCC 19606” value (A. baumannii ATCC 19606) was 0.5 µg/mL (≈ 0.438 µM) and the “MIC A. baumannii FADDI-AB034” value (A. baumannii FADDI-AB034) was 0.25 µg/mL (≈ 0.219 µM). The “Kidney histopathology (SQS Score)” value (Swiss mice, kidney) was 0 (SQS 0 = no significant change (overall score, <1)) and the “Kidney histopathology, mice” value (Swiss mice, kidney) was 3/3.
